Results published in ChEMBL document CHEMBL1147087, “An antidepressant that extends lifespan in adult Caenorhabditis elegans” (Nature, 2007).

Key:
Assay type in all cases: functional
[1] = system: Caenorhabditis elegans; assay: Effect on life span of Caenorhabditis elegans at 50 uM
[2] = system: Caenorhabditis elegans; assay: Effect on life span of Caenorhabditis elegans at 100 uM
[3] = system: Caenorhabditis elegans; assay: Effect on life span of Caenorhabditis elegans at 250 uM
[4] = system: Caenorhabditis elegans; assay: Increase in life span of Caenorhabditis elegans
[5] = system: Caenorhabditis elegans; assay: Effect on life span of Caenorhabditis elegans at 10 uM
[6] = system: Caenorhabditis elegans; assay: Effect on life span of Caenorhabditis elegans at 200 uM
[7] = system: Caenorhabditis elegans; assay: Effect on life span of diet restricted Caenorhabditis elegans N2 at 50 uM
[8] = system: Caenorhabditis elegans; assay: Effect on life span of Caenorhabditis elegans daf16(mu86) mutant at 50 uM
[9] = system: Caenorhabditis elegans; assay: Effect on life span of Caenorhabditis elegans ser7(tm1325) mutant at 50 uM
[10] = system: Caenorhabditis elegans; assay: Effect on life span of Caenorhabditis elegans ser4(ok512) mutant at 50 uM
[11] = system: Caenorhabditis elegans; assay: (§1) Effect on life span of Caenorhabditis elegans N2 treated on day 5 at 50 uM
[12] = system: Caenorhabditis elegans; assay: Effect on life span of Caenorhabditis elegans N2 treated on day 1 at 50 uM
[13] = system: Caenorhabditis elegans; assay: Effect on life span of Caenorhabditis elegans eat2(ad1116) mutant at 50 uM
[14] = system: Caenorhabditis elegans; assay: Effect on life span of Caenorhabditis elegans ser3(ok2007) mutant at 50 uM
[15] = system: Caenorhabditis elegans; assay: Effect on life span of Caenorhabditis elegans mod5 mutant at 10 uM
[16] = system: Caenorhabditis elegans; assay: Effect on life span of Caenorhabditis elegans ser7 mutant at 10 uM
[17] = system: Caenorhabditis elegans; assay: Effect on life span of Caenorhabditis elegans daf2 mutant at 10 uM
[18] = system: Caenorhabditis elegans; assay: Effect on life span of Caenorhabditis elegans ser3 mutant at 250 uM
[19] = system: Caenorhabditis elegans; assay: Effect on life span of Caenorhabditis elegans ser2 mutant at 10 uM
[20] = system: Caenorhabditis elegans; assay: Effect on life span of Caenorhabditis elegans tph1 mutant at 10 uM
[21] = system: Caenorhabditis elegans; assay: Effect on life span of Caenorhabditis elegans ser3 mutant at 10 uM
[22] = system: Caenorhabditis elegans; assay: Effect on life span of Caenorhabditis elegans eat2 mutant at 10 uM
[23] = system: Caenorhabditis elegans; assay: Effect on life span of Caenorhabditis elegans clk1 mutant at 10 uM
[24] = system: Caenorhabditis elegans; assay: Effect on life span of Caenorhabditis elegans mod1 mutant at 10 uM
[25] = system: Caenorhabditis elegans; assay: Effect on life span of Caenorhabditis elegans ser1 mutant at 10 uM
[26] = system: Caenorhabditis elegans; assay: Effect on life span of Caenorhabditis elegans N2 at 10 uM
[27] = system: Caenorhabditis elegans; assay: Effect on life span of Caenorhabditis elegans N2 treated on day 5 at 10 uM
[28] = system: Caenorhabditis elegans; assay: Effect on life span of Caenorhabditis elegans ser4 mutant at 10 uM
[29] = system: Caenorhabditis elegans; assay: Effect on life span of Caenorhabditis elegans daf16 mutant at 10 uM
[30] = system: Caenorhabditis elegans; assay: Effect on life span of Caenorhabditis elegans at 3000 uM
[31] = system: Caenorhabditis elegans; assay: Effect on life span of Caenorhabditis elegans at 1000 uM
[32] = system: Caenorhabditis elegans; assay: Effect on life span of Caenorhabditis elegans N2 treated on day 1 at 200 uM
[33] = system: Caenorhabditis elegans; assay: Effect on life span of Caenorhabditis elegans N2 treated on day 1 at 100 uM
[34] = system: Caenorhabditis elegans; assay: Effect on life span of Caenorhabditis elegans ser3 mutant at 2 uM
[35] = system: Caenorhabditis elegans; assay: Effect on life span of Caenorhabditis elegans ser7 mutant at 50 uM
[36] = system: Caenorhabditis elegans; assay: Effect on life span of Caenorhabditis elegans N2 from L1 stage at 10 uM
[37] = system: Caenorhabditis elegans; assay: Effect on life span of Caenorhabditis elegans tph(mg280) mutant at 50 uM
[38] = system: Caenorhabditis elegans; assay: Effect on life span of Caenorhabditis elegans tph1 mutant at 50 uM
[39] = system: Caenorhabditis elegans; assay: Effect on life span of Caenorhabditis elegans mod1(ok103) mutant at 50 uM
[40] = system: Caenorhabditis elegans; assay: Effect on life span of Caenorhabditis elegans ser4 mutant at 250 uM
[41] = system: Caenorhabditis elegans; assay: Effect on life span of Caenorhabditis elegans ser1(ok345) mutant at 50 uM
[42] = system: Caenorhabditis elegans; assay: Effect on life span of Caenorhabditis elegans clk1([…]) mutant at 50 uM
[43] = system: Caenorhabditis elegans; assay: Effect on life span of Caenorhabditis elegans ser2 mutant at 50 uM
[44] = system: Caenorhabditis elegans; assay: Effect on life span of Caenorhabditis elegans mod1 mutant at 50 uM
[45] = system: Caenorhabditis elegans; assay: Effect on life span of Caenorhabditis elegans daf2 mutant at 50 uM
[46] = system: Caenorhabditis elegans; assay: Effect on life span of Caenorhabditis elegans clk1 mutant at 50 uM
[47] = system: Caenorhabditis elegans; assay: Effect on life span of Caenorhabditis elegans N2 at 50 uM
[48] = system: Caenorhabditis elegans; assay: Effect on life span of Caenorhabditis elegans ser4 mutant at 2 uM
[49] = system: Caenorhabditis elegans; assay: Effect on life span of Caenorhabditis elegans eat2 mutant at 50 uM
[50] = system: Caenorhabditis elegans; assay: as §1; remark: listed apart in the source
[51] = system: Caenorhabditis elegans; assay: Effect on life span of Caenorhabditis elegans mod5(n3314) mutant at 50 uM
[52] = system: Caenorhabditis elegans; assay: Effect on life span of Caenorhabditis elegans ser1 mutant at 50 uM
[53] = system: Caenorhabditis elegans; assay: Effect on life span of Caenorhabditis elegans N2 from L1 stage at 200 uM
[54] = system: Caenorhabditis elegans; assay: Effect on life span of Caenorhabditis elegans daf16 mutant at 50 uM
[55] = system: Caenorhabditis elegans; assay: Effect on life span of Caenorhabditis elegans N2 treated on day 1 at 2 uM
[56] = system: Caenorhabditis elegans; assay: Effect on life span of Caenorhabditis elegans daf2(e1370) mutant at 50 uM
[57] = system: Caenorhabditis elegans; assay: Effect on life span of Caenorhabditis elegans ser3(ad1774) mutant at 50 uM
[58] = system: Caenorhabditis elegans; assay: Effect on life span of Caenorhabditis elegans N2 from L1 stage at 100 uM
[59] = system: Caenorhabditis elegans; assay: Effect on life span of Caenorhabditis elegans ser2(pk1357) mutant at 50 uM
[60] = system: Caenorhabditis elegans; assay: Effect on life span of Caenorhabditis elegans mod5 mutant at 50 uM
[61] = system: Caenorhabditis elegans; assay: Effect on life span of Caenorhabditis elegans tph1 mutant at 250 uM
[62] = system: Caenorhabditis elegans; assay: Effect on life span of Caenorhabditis elegans N2 treated on day 1 at 10 uM
[63] = system: Caenorhabditis elegans; assay: Effect on life span of Caenorhabditis elegans N2 from L1 stage at 50 uM
[64] = system: Caenorhabditis elegans; assay: Effect on life span of Caenorhabditis elegans ser3 mutant at 50 uM
[65] = system: Caenorhabditis elegans; assay: Effect on life span of Caenorhabditis elegans N2 from L1 stage at 2 uM
[66] = system: Caenorhabditis elegans; assay: Effect on life span of Caenorhabditis elegans ser4 mutant at 50 uM
[67] = system: Caenorhabditis elegans; assay: Effect on life span of Caenorhabditis elegans N2 at 2 uM
[68] = system: Caenorhabditis elegans; assay: Effect on life span of Caenorhabditis elegans N2 at 250 uM

Compound `CN1CCN2c3ncccc3Cc3ccccc3C2C1` (centres undefined) [MIRTAZAPINE] has an Activity [1] of 20% and an Activity [2] of 5%.
Work on `Fc1ccc([C@@H]2CCNC[C@H]2COc2ccc3c(c2)OCO3)cc1` [PAROXETINE] yielded an Activity [1] of -42% and an Activity [3] of -76%.
With `COc1ccccc1N1CCN(CCCCN2C(=O)c3ccccc3C2=O)CC1` [NAN-190] the Activity [1] was -11% and the Activity [2] was 2%.
Compound `O=C1CC(c2cccc([N+](=O)[O-])c2)CC2=C1C(c1ccccc1)Nc1ccccc1N2` (centres undefined) has an Activity [4] of 20%.
Work on `CN[C@H]1CC[C@@H](c2ccc(Cl)c(Cl)c2)c2ccccc21` [SERTRALINE] yielded an Activity [1] of -76% and an Activity [3] of -80%.
Work on `CN(C)CCCN1c2ccccc2CCc2ccccc21` [IMIPRAMINE] yielded an Activity [1] of -1%, an Activity [5] of -3% and an Activity [6] of -2%.
`CNCCC(Oc1ccc(C(F)(F)F)cc1)c1ccccc1` (centres undefined) [FLUOXETINE] gave an Activity [1] of -12%, an Activity [2] of -11% and an Activity [6] of -48%.
`Clc1cccc(N2CCNCC2)c1` [CHLOROPHENYLPIPERAZINE] was tested, and the Activity [1] was -26%.
`CCCN(CCC)C1CCc2cccc(O)c2C1` (centres undefined) [8-OH-DPAT] showed an Activity [1] of 3%, an Activity [2] of 8% and an Activity [6] of -13%.
In the case of `CN1CCC(=C2c3ccccc3C=Cc3ccccc32)CC1` [CYPROHEPTADINE], the Activity [7] was 9%, the Activity [1] was 19% and the Activity [8] was 6%. For the same compound, the Activity [9] was 54%, the Activity [10] was 16% and the Activity [11] was 7%. For the same compound, the Activity [12] was 33%, the Activity [13] was 4% and the Activity [2] was 17%. The Activity [14] was -4%.
In the case of `CNCCCN1c2ccccc2CCc2ccccc21` [DESIPRAMINE], the Activity [1] was -2%, the Activity [5] was -6% and the Activity [6] was 3%.
Work on `CSc1ccc2c(c1)C(N1CCN(C)CC1)Cc1ccccc1S2` (centres undefined) [METITEPINE] yielded an Activity [15] of 8%, an Activity [16] of 40% and an Activity [17] of 21%. The Activity [18] was -1%, the Activity [19] was 17% and the Activity [20] was -2%. It also gave an Activity [5] of 25%, an Activity [21] of -9% and an Activity [22] of -3%. For the same compound, the Activity [23] was 10%, the Activity [24] was 21% and the Activity [25] was 38%. For the same compound, the Activity [26] was 25%, the Activity [27] was -1% and the Activity [28] was 8%. It also gave an Activity [29] of 10%.
With `NCCc1c[nH]c2ccc(O)cc12` [SEROTONIN] the Activity [30] was -6% and the Activity [31] was -8%.
With `O=C1c2ccccc2S(=O)(=O)N1CCCCN1CCN(c2ncccn2)CC1` [IPSAPIRONE] the Activity [1] was 3% and the Activity [2] was 0%.
For `N[C@@H](Cc1ccccc1)C(=O)O` [PHENYLALANINE], the Activity [1] was -1% and the Activity [6] was -2%.
Compound `c1cc2c(c(N3CCNCC3)c1)OCCO2` [ELTOPRAZINE] has an Activity [1] of -12% and an Activity [2] of -8%.
`COc1ccccc1N1CCN(CCCCN2C(=O)CCC2=O)CC1` showed an Activity [1] of 6% and an Activity [2] of -4%.
Work on `CN(C)Cc1c[nH]c2ccccc12` [GRAMINE] yielded an Activity [1] of 2% and an Activity [5] of 3%.
With `CN1CCN2c3ccccc3Cc3ccccc3C2C1` (centres undefined) [MIANSERIN] the Activity [32] was -4%, the Activity [33] was 13% and the Activity [34] was -3%. For the same compound, the Activity [18] was -1%, the Activity [35] was 50% and the Activity [36] was 9%. The Activity [37] was 0%, the Activity [38] was 10% and the Activity [7] was 4%. The Activity [39] was 25%, the Activity [40] was -20% and the Activity [41] was 38%. For the same compound, the Activity [1] was 25%, the Activity [42] was 3% and the Activity [43] was 19%. It also gave an Activity [8] of 14%, an Activity [44] of 29% and an Activity [45] of 16%. It also gave an Activity [46] of 10%, an Activity [47] of 48% and an Activity [48] of 6%. It also gave an Activity [49] of -4%, an Activity [50] of 1% and an Activity [21] of -2%. For the same compound, the Activity [51] was 2%, the Activity [9] was 60% and the Activity [52] was 53%. The Activity [53] was 5%, the Activity [54] was 12% and the Activity [10] was 7%. It also gave an Activity [55] of 13%, an Activity [26] of 31% and an Activity [56] of 11%. For the same compound, the Activity [11] was 6%, the Activity [57] was 3% and the Activity [58] was -4%. For the same compound, the Activity [59] was 19%, the Activity [60] was 14% and the Activity [61] was -1%. For the same compound, the Activity [62] was 18%, the Activity [12] was 31% and the Activity [63] was 10%. The Activity [13] was 2%, the Activity [64] was -5% and the Activity [65] was 8%. The Activity [66] was 7%, the Activity [14] was -2% and the Activity [67] was 19%. It also gave an Activity [68] of -17%.
